Experiment [1] addresses T1, SlitOBP1 Trp37 (tryptophan to alanine) (Spodoptera litura, UniProt A1Z1R1, W56A).
T1 sequence (A1Z1R1 20-164 W56A): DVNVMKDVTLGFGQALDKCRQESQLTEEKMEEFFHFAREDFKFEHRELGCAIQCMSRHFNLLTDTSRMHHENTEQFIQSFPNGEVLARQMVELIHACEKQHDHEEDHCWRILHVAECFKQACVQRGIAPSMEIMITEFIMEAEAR
Put plainly: Fluorescence binding assay with 1-NPN, mutant SlitOBP1 Trp37.

Experiment [2] concerns the target T2, SlitOBP1 Glu98 (glutamic to alanine) (Spodoptera litura, UniProt A1Z1R1, E117A).
T2 sequence (A1Z1R1 20-164 E117A): T1 sequence (A1Z1R1 20-164 W56A) with A37W, E98A
Put plainly: Fluorescence binding assay with 1-NPN, mutant SlitOBP1 Glu98.

Experiment [3] addresses T3, SlitOBP1 Phe12 (phenylalanine to alanine) (Spodoptera litura, UniProt A1Z1R1, F31A).
T3 sequence (A1Z1R1 20-164 F31A): T1 sequence (A1Z1R1 20-164 W56A) with F12A, A37W
Put plainly: Fluorescence binding assay with 1-NPN, mutant SlitOBP1 Phe12.

In experiment [4] the target is T4, SlitOBP1 (Spodoptera litura, UniProt A1Z1R1).
T4 sequence (A1Z1R1 20-164): T1 sequence (A1Z1R1 20-164 W56A) with A37W
Briefly: Fluorescence competitive binding assay with 1-NPN, recombinant SlitOBP1. To be noted: for binding to SlitOBP1 in the competitive fluorescence binding assay, in words: wild-type SlitOBP1, displacement of 1-NPN.

In experiment [5] the target is T5, SlitOBP1 Ile52 (isoleucine to alanine) (Spodoptera litura, UniProt A1Z1R1, I71A).
T5 sequence (A1Z1R1 20-164 I71A): T1 sequence (A1Z1R1 20-164 W56A) with A37W, I52A
Briefly: Fluorescence binding assay with 1-NPN, mutant SlitOBP1 Ile52.

Experiment [6] deals with T6, SlitOBP1 Thr9 (threonine to alanine) (Spodoptera litura, UniProt A1Z1R1, T28A).
T6 sequence (A1Z1R1 20-164 T28A): T1 sequence (A1Z1R1 20-164 W56A) with T9A, A37W
Briefly: Fluorescence binding assay with 1-NPN, mutant SlitOBP1 Thr9.

Where [7] appears, read: 2 μM SlitOBP1, 2 μM 1-NPN, ligand 0-20 μM, unit inferred.

Consider 17 compounds from article PMC4278257 (International Journal of Biological Sciences, 2015).

Structures are written as SMILES. Substitutions are numbered along the chain they refer to. Entries after “also recorded” stand apart in the source; their conditions may differ. Read-outs that look alike come from different tables or passages of the source.

For orientation: Kd means the constant that tells how readily two partners part at equilibrium. The term Ki denotes a measure of affinity in units of concentration, obtained from inhibition or displacement. As a reminder, the IC50 is the concentration at which inhibition is half-maximal.

As to `c1ccc(Nc2cccc3ccccc23)cc1` [1-NPN, N-phenyl-1-naphthylamine, reference compound], the Kd in experiment [1] was determined as 4.54 ± 0.28 µM; in experiment [2], 3.67 ± 0.25 µM; in experiment [3], 6.78 ± 0.25 µM; in experiment [4], 3.24 ± 0.2 µM; in experiment [5], 5.43 ± 0.31 µM; in experiment [6], 4.21 ± 0.19 µM.
Take `C[C@]12C=CC(=O)C=C1CC[C@@H]1[C@@H]2[C@@H](O)C[C@@]2(C)[C@H]1CC[C@]2(O)C(=O)CO` [50-24-8, 11β,17α,21-trihydroxypregna-1,4-diene-3,20-dione, reference compound]: in experiment [4], the Ki was found to be 3.1 µM and the “binding to SlitOBP1 in the competitive fluorescence binding assay, in words” value (“binding to SlitOBP1” for short) was “high affinities; also recorded: could effectively displace 1-NPN”. Further, the half-maximal inhibitory concentration (IC50) in experiment [4] (setting [7]) is 5.02 µM.
Taken in the same sequence, the figures for `C[C@]12C=CC(=O)C=C1CC[C@@H]1[C@@H]2C(=O)C[C@@]2(C)[C@H]1CC[C@]2(O)C(=O)CO` [53-03-2, 1,2-Dehydrocortisone, reference compound] were 3.09 µM, “high affinities; also recorded: could effectively displace 1-NPN” and 5 µM.
Consider `CC(=O)[C@H]1CC[C@H]2[C@@H]3CC=C4C[C@@H](O)CC[C@]4(C)[C@H]3CC[C@]12C` [145-13-1, Delta-5-pregnenolone], for which the Ki in experiment [4] stood at 9.13 µM. Besides, the IC50 in experiment [4] (setting [7]) turned out to be 14.8 µM.
`O=C(O)C(F)(F)C(F)(F)C(F)(F)C(F)(F)C(F)(F)C(F)(F)C(F)(F)C(F)(F)F` [375-95-1, Perfluorononanoic acid]: in experiment [4], the Ki was 3.76 µM and the “binding to SlitOBP1” value is “high affinities; also recorded: could effectively displace 1-NPN”. For the same compound, the IC50 in experiment [4] (setting [7]) worked out at 6.08 µM.
With `OCCC(F)(F)C(F)(F)C(F)(F)C(F)(F)C(F)(F)C(F)(F)C(F)(F)C(F)(F)F` [678-39-7, 1H,1H,2H,2H-perfluoro-1-decanol], the “binding to the mutant compared with the wild type, in words” value in experiment [1] (mutant Trp37) is recorded as “better binding activities”. The inhibitory constant (Ki) in experiment [4] came to 3.69 µM. In addition, the IC50 in experiment [4] (setting [7]) was 5.97 µM.
Turning to `OCC(F)(F)C(F)(F)C(F)(F)C(F)(F)C(F)(F)C(F)(F)C(F)(F)C(F)(F)CO` [754-96-1, 1H,1H,10H,10H-perfluoro-1,10-decanediol], the Ki in experiment [4] was determined as 4.13 µM. For the same compound, the IC50 in experiment [4] (setting [7]) was 6.68 µM.
On to `O=C(O)C(F)(F)C(F)(F)C(F)(F)C(F)(F)C(F)(F)C(F)(F)C(F)(F)C(F)(F)Cl` [865-79-2, 9-Chlorohexadecafluorononanoic acid], for which, in experiment [4], the IC50 turned out to be 6 µM; the Ki amounted to 3.73 µM; the “binding to SlitOBP1” value is “high affinities; also recorded: could effectively displace 1-NPN”.
With `CC(=O)[C@@]12O[C@@H]1C[C@H]1[C@@H]3CC=C4C[C@@H](O)CC[C@]4(C)[C@H]3CC[C@@]12C` [974-23-2, 16,17-epoxypregnenolone], the Ki in experiment [4] amounted to 5.12 µM. Besides, in experiment [4] (setting [7]), the 50% inhibitory concentration (IC50) worked out at 8.28 µM.
In the case of `N#CC(F)(F)C(F)(F)C(F)(F)C(F)(F)C(F)(F)C(F)(F)C(F)(F)C(F)(F)C#N` [2342-09-8, Perfluorosebaconitrile], the “binding to SlitOBP1” value in experiment [4] is on record as “no binding potential”.
Turning to `CC(C)(C)OC(=O)C[C@H](NC(=O)OCc1ccccc1)C(=O)O` [5545-52-8, N-Cbz-L-Aspartic acid 4-tert-butyl ester], in experiment [4], the concentration for half-maximal inhibition (IC50) stood at 6.7 µM and the inhibition constant (Ki) turned out to be 4.14 µM.
In the case of `NCC(=O)NC(Cc1ccc(O)cc1)C(=O)NCC(=O)O` (stereo not drawn) [6099-08-7, H-Gly-Tyr-Gly-OH], the “binding to the mutant compared with the wild type, in words” value in experiment [2] (mutant Glu98) and in experiment [6] (mutant Thr9) was “better binding activities” each time. Further, the Ki in experiment [4] was 3.78 µM. The IC50 in experiment [4] (setting [7]) amounted to 6.11 µM.
For the compound `CC[C@H](C)[C@H](NC(=O)[C@@H](N)CCCCN)C(=O)O` [20556-13-2, H-Lys-Ile-OH], in experiment [4], the Ki is 4.65 µM. In addition, the IC50 in experiment [4] (setting [7]) stood at 7.52 µM.
Taken in the same sequence, the figures for `NC(=O)[C@@H]1CCCN1C(=O)[C@H](Cc1cnc[nH]1)NC(=O)[C@@H]1CCC(=O)N1` [24305-27-9, Pyr-His-Pro-NH2] were 4.44 µM and 7.18 µM.
For the compound `NCCC(F)(F)C(F)(F)C(F)(F)C(F)(F)C(F)(F)C(F)(F)C(F)(F)C(F)(F)F` [30670-30-5, 1H,1H,2H,2H-perfluorodecylamine], the “binding to SlitOBP1” value in experiment [4] is given as “no binding potential”.
As for `N[C@@H](Cc1ccc(O)cc1)C(=O)OCc1ccccc1` [42406-77-9, L-Tyrosine benzyl ester], the Ki in experiment [4] came to 4.47 µM. Further, in experiment [4] (setting [7]), the IC50 is 7.23 µM.
As to `OCC(F)(F)C(F)(F)C(F)(F)C(F)(F)C(F)(F)C(F)(F)C(F)(F)CO` [203303-01-9, 1H,1H,9H,9H-perfluoro-1,9-nonanediol], the Ki in experiment [4] was 5.84 µM. Moreover, in experiment [4] (setting [7]), the IC50 amounted to 9.45 µM.
